According to paper PMC7128553 (Chemistry & Biology, 2004):
pEC50: −log10 of the molar value. Entries after “also recorded” stand apart in the source; their conditions may differ. Read-outs that look alike come from different tables or passages of the source.

Key:
SARS-CoV = assay: microbe, parasite or virus in culture; type: cell-based; settings: read-out: EC50, SARS-CoV plaque formation
Vero cells = settings: African green monkey
[1] = target: T1, human neutrophil elastase (HNE) (Homo sapiens, UniProt P08246); type: biochemical
T1 sequence (P08246 30-267): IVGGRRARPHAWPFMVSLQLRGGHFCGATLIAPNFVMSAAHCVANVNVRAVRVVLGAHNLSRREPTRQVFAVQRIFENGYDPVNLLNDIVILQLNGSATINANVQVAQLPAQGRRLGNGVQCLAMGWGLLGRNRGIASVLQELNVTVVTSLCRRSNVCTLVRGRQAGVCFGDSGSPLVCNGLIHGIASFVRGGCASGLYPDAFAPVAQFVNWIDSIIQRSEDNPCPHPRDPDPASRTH

poliovirus (type 1) = type: cell-based
[2] = Severe acute respiratory syndrome coronavirus, Vero

| Compound | pEC50 (SARS-CoV; [2]) | pEC50 (SARS-CoV) | Cytotoxicity on Vero Cells (TC50) (Vero cells) [µM] | Inhibition of proteolytic activity of HNE [1] | Inhibition of poliovirus plaque formation (poliovirus (type 1)) |
| --- | --- | --- | --- | --- | --- |
| O=C(Nc1ccc(Cl)c(-c2nc3ncccc3o2)c1)c1cccc(OCc2ccccc2)c1 [HE602, 3-Benzyloxy-N-(4-chloro-3-oxazolo[4,5-b]pyridine-2-yl-phenyl)benzamide] | 5.22 | > 5.00 | >50 | – | – |
| CC1=C(C(=O)OCCc2ccccc2)C(c2ccccc2[N+](=O)[O-])C2=C(CCCC2=O)N1 (stereo not drawn) [MP576, 3-quinolinecarboxylic acid, 1,4,5,6,7,8-hexahydro-2-methyl-4-(2-nitrophenyl)-5-oxo-, 2-phenylethyl ester] | 5.15 | > 5.00 | >50 | failed to inhibit; also recorded: did not inhibit | – |
| OC(COc1cccc(OCC(O)CN2CCCCC2)c1)CN1CCCCC1 (stereo not drawn) [VE607, 1-[3-(2-Hydroxyl-3-piperidin-1-yl-propoxy)-phenoxy]-3-piperidin-1-ylpropan-2-ol] | – | – | >50 | – | did not protect; also recorded: did not inhibit |
